Experimental findings from patent publication US20110165115A1, “SYNERGISTIC ATTRACTANTS FOR PESTIFEROUS SOCIAL INSECTS” (STERLING INTERNATIONAL INC., priority 2010, published 2011) are described below.

In the experiment the test system is P. aurifer. Kind of experiment: Field trapping Experiment 3, different doses of DMNT alone. Format: in vivo, Polistes aurifer. Here is the method:
Three field trapping experiments were carried out during late July to early August 2009, in residential and woody areas around Spokane, Wash., USA, using the newly marketed Rescue® W•H•Y traps (www.rescue.com). As used herein, the W•H•Y trap is a trap in accordance with the description of United States Patent Application Publication No. 2009/0151228. The W•H•Y trap has a top chamber and a bottom chamber. The top chamber is baited with two attractants—one of which is a solid contained in a vial (2-methyl-1-butanol) and the other a liquid mixed with water (acetic acid), herein referred to as the W•H•Y top attractant. The bottom chamber is baited with a liquid attractant (heptyl butyrate) poured onto a cotton pad, herein referred to as the W•H•Y bottom attractant. Separation of the top and bottom attractants (otherwise antagonistic to each other when released from the same chamber) in two chambers was a design feature of this trap and creates two focal attraction sources from one trap for different species of wasps, hornets, and yellowjackets. Traps were hung 1.5-2.0 m above the ground on either the fence or tree branches ca. 5 m apart within each trap line. For each trapping experiment, six sets of traps were deployed with their initial trap positions within each set being randomized. To minimize positional effects and obtain more replications, wasp collections and trap re-randomization were carried out when ≧10-20 wasps were caught in the best trap. Each replicate lasted several days depending on wasp flight activity. Captured wasps were removed from the traps and kept in the zip-bags before taking back to the laboratory for recording of the species, gender status, and catch.
Experiment 3 (Aug. 5-13, 2009) was conducted to determine the potential behavioral activity of different doses of (E)-4,8-dimethyl-1,3,7-nonatriene alone. The individual (or different doses) HIPVs were loaded into either polyethylene bags or centrifuge tube type of dispensers, and released from the top of the W•H•Y trap chamber. W•H•Y trap attractants (both top and bottom or top only) alone and water (top chamber only) were included in the test as positive and blank controls, respectively. The dispenser types, loading and release rates of the tested semiochemicals are described in Tables 1, 2 and 3.
Trap catch data were converted to proportion (P) of total captured wasps within each replicate. Data were then transformed by arcsin√P to meet the assumptions of normality and homogeneity of variances for ANOVA. Means were compared by ANOVA followed by the Ryan-Einot-Gabriel-Welsh (REGW) multiple Q test (SPSS 16.0 for Windows) at α=0.05.

With `C=C/C=C(\C)CCC=C(C)C` [(E)-4,8-dimethyl-1,3,7-nonatriene], the “Total Paper Wasps Caught P. aurifer” value by setting is: (Exp 3, release rate 0.25, hole 0.5 mm, loading 15 μL) 3; (Exp 3, release rate 0.5, hole 1 mm, loading 30 μL) 1; (Exp 3, release rate 1, hole 2 mm, loading 75 μL) 0; (Exp 3, release rate 1.5, hole 3 mm, loading 175 μL) 5; (Exp 3, release rate 2, hole 5.5 mm, loading 325 μL) 0.
